Measurements as given in patent US11980596B2 (priority 2017, dated 2024).

System: subjects with MDD at imminent risk for suicide
[1] = esketamine 84 mg, double-blind phase, N = 35
[2] = esketamine 84 mg, follow up phase, N = 27

Experimental: The study consisted of a screening evaluation performed within 24 hours (or up to 48 hours upon consultation with the Sponsor's medical monitor) prior to Day 1 dose, immediately followed by a 25-day double-blind treatment phase (Day 1 to 25) with twice a week dosing, and a 56-day follow up phase (Day 26 to Day 81). The study was designed as a POC study and therefore a two-sided 0.20 significance level was used.
Among 68 randomized subjects, 66 were included in the safety analysis set (defined as receiving at least one dose of study medication in the double-blind phase). […] All safety subjects (N=66) were included in the intent-to-treat (ITT) analysis set (defined as receiving at least one dose of study medication during the double-blind phase and having both the baseline and the Day 1, 4-hour postdose evaluation for the MADRS total score). Forty-nine subjects were included in the safety (FU) analysis set (defined as all subjects who have at least 1 visit during the follow up phase).

## CN[C@]1(c2ccccc2Cl)CCCCC1=O [esketamine, (S)-2-(2-chlorophenyl)-2-(methylamino)cyclohexanone]
[1]
  TEAE leading to study discontinuation: Dysgeusia: 1 (2.9%) subjects (%)
  TEAE leading to study discontinuation: Dyspnea: 1 (2.9%) subjects (%)
  TEAE leading to study discontinuation: Gastrointestinal disorders: 1 (2.9%) subjects (%)
  TEAE leading to study discontinuation: Nausea: 1 (2.9%) subjects (%)
  TEAE leading to study discontinuation: Nervous system disorders: 2 (5.7%) subjects (%)
  TEAE leading to study discontinuation: Panic attack: 0 subjects (%)
  TEAE leading to study discontinuation: Psychiatric disorders: 2 (5.7%) subjects (%)
  TEAE leading to study discontinuation: Respiratory, thoracic and mediastinal disorders: 1 (2.9%) subjects (%)
  TEAE leading to study discontinuation: Ventricular extrasystoles: 1 (2.9%) subjects (%)
  Total no. subjects with TEAE: 33
  Total no. subjects with TEAE leading to study discontinuation: 5 (14.3%) subjects (%)
  Total no. subjects with a serious TEAE: 4 (11.4%) subjects (%)
  Total subjects with TEAE, % of subjects: (94.3%)
Esketamine 84 mg, double-blind phase, N = 35, possible, probable, very likely
  Possibly related TEAE: 29 (82.9%) subjects (%)
[2]
  AE Abdominal pain, % of subjects: (3.7%)
  AE Abdominal pain, no. subjects: 1
  AE Abdominal tenderness, % of subjects: (3.7%)
  AE Abdominal tenderness, no. subjects: 1
  AE Aphthous ulcer, no. subjects: 0
  AE Back pain, % of subjects: (3.7%)
  AE Back pain, no. subjects: 1
  AE Bronchitis, no. subjects: 0
  AE Cellulitis, no. subjects: 0
  AE Cogwheel rigidity, % of subjects: (3.7%)
  AE Cogwheel rigidity, no. subjects: 1
  AE Contusion, % of subjects: (3.7%)
  AE Contusion, no. subjects: 1
  AE Depressed mood, no. subjects: 0
  AE Depression, % of subjects: (3.7%)
  AE Depression, no. subjects: 1
  AE Diarrhea, % of subjects: (3.7%)
  AE Diarrhea, no. subjects: 1
  AE Dizziness, % of subjects: (3.7%)
  AE Dizziness, no. subjects: 1
  AE Drug hypersensitivity, no. subjects: 0
  AE Dry mouth, % of subjects: (7.4%)
  AE Dry mouth, no. subjects: 2
  AE Dysgeusia, % of subjects: (3.7%)
  AE Dysgeusia, no. subjects: 1
  AE Ear and labyrinth disorders, no. subjects: 0
  AE Ear infection, % of subjects: (3.7%)
  AE Ear infection, no. subjects: 1
  AE Epistaxis, % of subjects: (3.7%)
  AE Epistaxis, no. subjects: 1
  AE Flank pain, % of subjects: (3.7%)
  AE Flank pain, no. subjects: 1
  AE Folliculitis, no. subjects: 0
  AE Gastrointestinal disorders, % of subjects: (22.2%)
  AE Gastrointestinal disorders, no. subjects: 6
  AE Headache, % of subjects: (7.4%)
  AE Headache, no. subjects: 2
  AE Immune system disorders, no. subjects: 0
  AE Infections and infestations, % of subjects: (11.1%)
  AE Infections and infestations, no. subjects: 3
  AE Influenza, no. subjects: 0
  AE Injury, poisoning and procedural complications, % of subjects: (7.4%)
  AE Injury, poisoning and procedural complications, no. subjects: 2
  AE Insomnia, % of subjects: (11.1%)
  AE Insomnia, no. subjects: 3
  AE Intentional self-injury, % of subjects: (3.7%)
  AE Intentional self-injury, no. subjects: 1
  AE Loss of consciousness, % of subjects: (3.7%)
  AE Loss of consciousness, no. subjects: 1
  AE Meniere's disease, no. subjects: 0
  AE Metabolism and nutrition disorders, no. subjects: 0
  AE Migraine, % of subjects: (3.7%)
  AE Migraine, no. subjects: 1
  AE Musculoskeletal and connective tissue disorders, % of subjects: (7.4%)
  AE Musculoskeletal and connective tissue disorders, no. subjects: 2
  AE Musculoskeletal chest pain, % of subjects: (3.7%)
  AE Musculoskeletal chest pain, no. subjects: 1
  AE Musculoskeletal pain, % of subjects: (3.7%)
  AE Musculoskeletal pain, no. subjects: 1
  AE Nasal congestion, % of subjects: (3.7%)
  AE Nasal congestion, no. subjects: 1
  AE Nasopharyngitis, % of subjects: (3.7%)
  AE Nasopharyngitis, no. subjects: 1
  AE Nausea, no. subjects: 0
  AE Neck pain, % of subjects: (3.7%)
  AE Neck pain, no. subjects: 1
  AE Nervous system disorders, % of subjects: (22.2%)
  AE Nervous system disorders, no. subjects: 6
  AE Night sweats, % of subjects: (3.7%)
  AE Night sweats, no. subjects: 1
  AE Panic reaction, no. subjects: 0
  AE Pelvic pain, % of subjects: (3.7%)
  AE Pelvic pain, no. subjects: 1
  AE Pharyngitis, % of subjects: (7.4%)
  AE Pharyngitis, no. subjects: 2
  AE Polydipsia, no. subjects: 0
  AE Procedural pain, no. subjects: 0
  AE Psychiatric disorders, % of subjects: (18.5%)
  AE Psychiatric disorders, no. subjects: 5
  AE Rash, no. subjects: 0
  AE Renal and urinary disorders, no. subjects: 0
  AE Renal failure, no. subjects: 0
  AE Reproductive system and breast disorders, % of subjects: (3.7%)
  AE Reproductive system and breast disorders, no. subjects: 1
  AE Respiratory, thoracic and mediastinal disorders, % of subjects: (7.4%)
  AE Respiratory, thoracic and mediastinal disorders, no. subjects: 2
  AE Restlessness, % of subjects: (3.7%)
  AE Restlessness, no. subjects: 1
  AE Road traffic accident, % of subjects: (3.7%)
  AE Road traffic accident, no. subjects: 1
  AE Sedation, % of subjects: (3.7%)
  AE Sedation, no. subjects: 1
  AE Self-injurious ideation, no. subjects: 0
  AE Sexual dysfunction, no. subjects: 0
  AE Skin and subcutaneous tissue disorders, % of subjects: (3.7%)
  AE Skin and subcutaneous tissue disorders, no. subjects: 1
  AE Somnolence, no. subjects: 0
  AE Suicidal ideation, % of subjects: (3.7%)
  AE Suicidal ideation, no. subjects: 1
  AE Suicide attempt, no. subjects: 0
  AE Tooth impacted, no. subjects: 0
  AE Toothache, no. subjects: 0
  AE Tremor, % of subjects: (7.4%)
  AE Tremor, no. subjects: 2
  AE Upper respiratory tract infection, % of subjects: (3.7%)
  AE Upper respiratory tract infection, no. subjects: 1
  AE Viral upper respiratory tract infection, no. subjects: 0
  AE Vomiting, % of subjects: (3.7%)
  AE Vomiting, no. subjects: 1
  AE Vulvovaginal mycotic infection, % of subjects: (3.7%)
  AE Vulvovaginal mycotic infection, no. subjects: 1
  Serious adverse event: Cellulitis: 0 subjects (%)
  Serious adverse event: Infections and infestations: 0 subjects (%)
  Serious adverse event: Psychiatric disorders: 1 (3.7%) subjects (%)
  Serious adverse event: Suicidal ideation: 1 (3.7%) subjects (%)
  Serious adverse event: Suicide attempt: 0 subjects (%)
  Total no. subjects with a serious adverse event: 1 (3.7%) subjects (%)
  Total no. subjects with adverse events: 13
  Total subjects with adverse events, % of subjects: (48.1%)
Follow up period
  Suicide attempts (non-fatal): none
